Biological target: T1, LPLAT8/LPCAT1 (Homo sapiens, UniProt Q8NF37)
T1 construct: transiently expressed in HEK 293T; 100,000 g membrane fraction
T1 sequence (Q8NF37 1-534): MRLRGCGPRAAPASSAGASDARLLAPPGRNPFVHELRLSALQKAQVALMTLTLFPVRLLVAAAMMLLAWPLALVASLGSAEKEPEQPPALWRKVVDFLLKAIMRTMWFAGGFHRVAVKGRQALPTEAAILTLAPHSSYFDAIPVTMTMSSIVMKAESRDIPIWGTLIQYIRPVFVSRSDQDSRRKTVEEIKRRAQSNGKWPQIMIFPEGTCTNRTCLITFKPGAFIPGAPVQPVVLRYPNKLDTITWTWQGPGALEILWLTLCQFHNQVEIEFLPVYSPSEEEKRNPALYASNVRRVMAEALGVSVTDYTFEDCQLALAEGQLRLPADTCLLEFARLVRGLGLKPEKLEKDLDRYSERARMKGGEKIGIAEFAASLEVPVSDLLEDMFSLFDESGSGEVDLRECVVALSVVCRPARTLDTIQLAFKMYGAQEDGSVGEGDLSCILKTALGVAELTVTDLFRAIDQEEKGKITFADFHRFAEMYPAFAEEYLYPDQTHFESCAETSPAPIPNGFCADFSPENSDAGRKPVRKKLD
Experiment: LC-MS/MS acyltransferase assay, membrane fraction
Type: biochemical
Settings: pH 7.4, 37 °C

Compound	LC-MS/MS acyltransferase assay, membrane fraction (donor C26:0-CoA 10 µM, LPC 20 µM, labelled compound)	LC-MS/MS acyltransferase assay, membrane fraction (10 µM acyl-CoA, acceptor 2-16:0-d31-LPC 20 µM)
CCCCCCCCCCCCCCCC(=O)O[C@H](CO)COP(=O)([O-])OCC[N+](C)(C)C [2-16:0-d31-LPC]	C26:0-CoA transfer activity was not significantly different between 2-acyl-LPC and 1-acyl-LPC	
CCCCCCCCCCCCCCCCCCCCCCCCCC(=O)SCCNC(=O)CCNC(=O)[C@H](O)C(C)(C)COP(=O)(O)OP(=O)(O)OC[C@H]1O[C@@H](n2cnc3c(N)ncnc32)[C@H](O)[C@@H]1OP(=O)(O)O [C26:0-CoA]		LPLAT8/LPCAT1, which has very high homology with LPLAT10 in terms of amino acid sequence, showed slight activity
